Experimental data published in patent US20110098296A1, “Thiazole And Oxazole Kinase Inhibitors” (priority 2007, published 2011).
Where a name gives a salt, the structure may show the parent alone.

How the values were obtained:
EGFR = target: T1, EGFR (Homo sapiens, UniProt P00533); test: EGFR substrate phosphorylation assay (HTRF); type: biochemical; details: Method (A): Enzyme Mix incubated with compound at 20° C. for 1 hr, reaction started by adding Substrate Mix
T1 construct: made in house; host or cells: baculovirus expression system
Procedure: (§1) Compounds of the present invention were tested for EGFR and ErbB-2 protein tyrosine kinase inhibitory activity in substrate phosphorylation assays using enzymes purified from a baculovirus expression system. Reagent production was conducted essentially as described in Brignola, P. S., et al., (2002) J. Biol. Chem. 277(2):1576-1585.
(§2) The method measures the ability of the isolated enzyme to catalyse the transfer of the gamma-phosphate from ATP onto the tyrosine residue of a biotinylated synthetic peptide referenced “Peptide C” in Brignola, P. S., et al., (2002) J. Biol. Chem. 277(2):1576-1585. The extent of tyrosine phosphorylation was measured using an anti-phosphotyrosine antibody, and quantified by homogenous time-resolved fluorescence (HTRF).
(§3) Reactions were performed in black 384-well polystyrene flat-bottom plates in a final volume of 20 μl. Assays were performed by adding 10 μl of each of the following solutions, Substrate Mix and Enzyme Mix: The Substrate Mix contained 100 mM 3-[N-morpholino]propanesulfonic acid (MOPS) (pH 7.5), 2 mM MnCl2, 20 μM ATP, 0.01% Tween-20, 0.1 mg/mL (BSA), 0.8 uM peptide substrate, and 1 mM dithiothreitol. The Enzyme Mix contained 100 mM MOPS (pH 7.5); 0.01% Tween-20; 0.1 mg/mL BSA, and either 0.8 nM EGFR, 10 nM ErbB2, or 1 nM ErbB4
(§4) During the course of these studies, two separate methods have been used to measure the potency of compounds. In Method A (indicated as “(A)” in the tables below), the Enzyme Mix was added to the compound plates and the plates were incubated at 20° C. for 1 hr. The reactions were then started by adding the Substrate Mix. In Method B (indicated as “(B)” in the tables below), the Substrate Mix was added to the compound plates first, then the reaction was started by adding the Enzyme Mix.
(§5) After initiating the reaction with either method describe above, the reactions were allowed to proceed for 90 minutes at 20° C. The reactions were then terminated by the addition of 20 μL 100 mM EDTA to each well. 40 μL/well of HTRF detection mix were added to the assay plates. The final concentrations of the detection reagents were: 100 mM HEPES (pH7.5), 0.1 mg/mL BSA, 15 nM streptavidin-labeled allophycocyanin (PerkinElmer), and 1 nM europium-labeled anti-phosphotyrosine antibody (PerkinElmer). Assay plates were left unsealed and were counted in a Wallac Multilabel Counter 1420 (PerkinElmer).
(§6) Compounds under analysis were dissolved in dimethylsulfoxide (DMSO) to 1.0 mM and serially diluted 1 to 3 with DMSO through twelve dilutions. 1 μL of each concentration was transferred to the corresponding well of an assay plate. This creates a final compound concentration range from 0.00027 to 47.6 μM.
(§7) The data for dose responses were plotted as % Inhibition calculated with the data reduction formula 100*(1−(U1−C2)/(C1−C2)) versus concentration of compound where U1 is the unknown value, C1 is the average control value obtained for 4.76% DMSO, and C2 is the average control value obtained for 0.035 M EDTA. Data were fitted with a curve described by:
(§8) where Vmax is the upper asymptote, Y2 is the Y intercept, and K is the IC50. The results for each compound were recorded as pIC50s, calculated as follows: […]

Colo205 tumor cells = test: Method C: Cell Growth Inhibition Assay (CellTiter-Glo), Colo205; type: cell-based; details: Homo sapiens, COLO 205, 72 h, 3 days, 4-parameter fit
Procedure: (§9) Human breast tumor cells (BT474) were cultured in RPMI (Mediatech 50-011-PB), containing 10% FBS (JRH Biosciences 12176) and 1% penicillin-streptomycin (Invitrogen 15140). Human head and neck tumor cells (HN5) were cultured in high glucose DMEM (Mediatech 50-013-PB) containing 10% FBS and 1% penicillin-streptomycin. Human colon tumor cells (Colo205) were cultured in RPMI (Mediatech 50-020-PB) containing 10% FBS and 1% penicillin-streptomycin. Human melanoma cancer cells (SK-MEL-28) were cultured in EMEM with nonessential amino acids (Mediatech 50-011-PB) containing 10% FBS, 1% sodium pyruvate (JT Baker 3354-04), and 1% penicillin-streptomycin. Human melanoma cancer cells (A375P F11s) were cultured in RPMI (Mediatech 50-020-PB) containing 10% FBS, 1% sodium pyruvate, and 1% penicillin-streptomycin. Human colon cancer cells (HT-29) were cultured in high glucose DMEM (Mediatech 50-013-PB) containing 10% FBS and 1% penicillin-streptomycin. Human melanoma cancer cells (SK-MEL-3) were cultured in McCoy's 5A (50-025-PB) containing 15% FBS, and 1% penicillin-streptomycin. All cell lines were maintained at 37° C. in a humidified 5% CO2, 95% air incubator. Cells were harvested using trypsin/EDTA (Invitrogen 25200), counted using an haemocytometer, and plated. For 96-well assays (using white full-area NUNC plates cat. #136102), cells were plated in 105 μL at the following densities (cells/well): HN5, 500; Colo205, 500; SK-MEL-28, 500; A375P-F11s, 500; HT-29, 500; SK-MEL-3, 500; and BT474, 3000. For 384-well assays (white full-area NUNC plates, cat. #781080), cells were plated in 48 μL at the following densities (cells/well): HN5, 500; Colo205, 500; SK-MEL-28, 500; A375P-F11s, 500; HT29, 500; SK-MEL-3, 500; and BT474, 2000.
(§10) The next day, compounds were diluted as follow: For 96-well assays, 13.5 μL of compound in DMSO were diluted using nine (9) serial 1:3 dilutions of 4.5 μL in 9 μL of DMSO. Medium (270 μl/well of RPMI with 10% FBS and 1% penicillin-streptomycin) was added to the plates. Aliquots (7 μl) were added to cells in the final assay giving a final DMSO concentration of 0.2%. For 384-well assays, 15 μL of compound in DMSO were diluted using nine (9) serial 1:3 dilutions of 5 μL in 10 μL of DMSO, followed by a further dilution of 5 μL of compound with 95 μL of medium, of which 2 μL were added to cells in the final assay giving a final DMSO concentration of 0.2%. Cells were incubated at 37° C., 5% CO2 for 3 days.
(§11) Total ATP was measured (as a surrogate estimate of cell number) using CellTiter-Glo® reagent (Promega G7571). Briefly, plates were removed from the incubator and allowed to equilibrate to room temperature for 30 minutes. CellTiter-Glo® (25 μL or 55 μL for 384-well or 96-well assays, respectively) reagent was added to each well and plates were shaken on an orbital plate shaker for 2 mins. Plates were incubated without shaking for a further 30 mins and read on an LJL Analyst GT reader in luminometer mode with an integration time of 0.5 seconds per well. Percent inhibition of cell growth was calculated relative to DMSO vehicle-treated control wells. Concentration of compound required to give 50% inhibition of vehicle-treated control cell growth (IC50) was interpolated using a 4-parameter fit for determining IC50 using the following equation: Y=A+((B−A)/(1+((C/X)̂D))) where X=IC50.

SK-MEL-28 tumor cells = test: Method C: Cell Growth Inhibition Assay (CellTiter-Glo), SK-MEL-28; type: cell-based; details: Homo sapiens, SK-MEL-28, 72 h, 3 days, 4-parameter fit
Procedure: as §9, §10, §11

ErbB2 = target: T2, ErbB2 (Homo sapiens, UniProt P04626); test: ErbB-2 substrate phosphorylation assay (HTRF); type: biochemical; details: Method (A): Enzyme Mix incubated with compound at 20° C. for 1 hr, reaction started by adding Substrate Mix
T2 construct: made in house; host or cells: baculovirus expression system
Procedure: as §1, §2, §3, §4, §5, §6, §7, §8

BT474 tumor cells = test: Method C: Cell Growth Inhibition Assay (CellTiter-Glo), BT474; type: cell-based; details: Homo sapiens, BT-474, 72 h, 3 days, 4-parameter fit
Procedure: as §9, §10, §11

HN5 tumor cells = test: Method C: Cell Growth Inhibition Assay (CellTiter-Glo), HN5; type: cell-based; details: Homo sapiens, 72 h, 3 days, 4-parameter fit
Procedure: as §9, §10, §11

T1 sequence (P00533 25-1210): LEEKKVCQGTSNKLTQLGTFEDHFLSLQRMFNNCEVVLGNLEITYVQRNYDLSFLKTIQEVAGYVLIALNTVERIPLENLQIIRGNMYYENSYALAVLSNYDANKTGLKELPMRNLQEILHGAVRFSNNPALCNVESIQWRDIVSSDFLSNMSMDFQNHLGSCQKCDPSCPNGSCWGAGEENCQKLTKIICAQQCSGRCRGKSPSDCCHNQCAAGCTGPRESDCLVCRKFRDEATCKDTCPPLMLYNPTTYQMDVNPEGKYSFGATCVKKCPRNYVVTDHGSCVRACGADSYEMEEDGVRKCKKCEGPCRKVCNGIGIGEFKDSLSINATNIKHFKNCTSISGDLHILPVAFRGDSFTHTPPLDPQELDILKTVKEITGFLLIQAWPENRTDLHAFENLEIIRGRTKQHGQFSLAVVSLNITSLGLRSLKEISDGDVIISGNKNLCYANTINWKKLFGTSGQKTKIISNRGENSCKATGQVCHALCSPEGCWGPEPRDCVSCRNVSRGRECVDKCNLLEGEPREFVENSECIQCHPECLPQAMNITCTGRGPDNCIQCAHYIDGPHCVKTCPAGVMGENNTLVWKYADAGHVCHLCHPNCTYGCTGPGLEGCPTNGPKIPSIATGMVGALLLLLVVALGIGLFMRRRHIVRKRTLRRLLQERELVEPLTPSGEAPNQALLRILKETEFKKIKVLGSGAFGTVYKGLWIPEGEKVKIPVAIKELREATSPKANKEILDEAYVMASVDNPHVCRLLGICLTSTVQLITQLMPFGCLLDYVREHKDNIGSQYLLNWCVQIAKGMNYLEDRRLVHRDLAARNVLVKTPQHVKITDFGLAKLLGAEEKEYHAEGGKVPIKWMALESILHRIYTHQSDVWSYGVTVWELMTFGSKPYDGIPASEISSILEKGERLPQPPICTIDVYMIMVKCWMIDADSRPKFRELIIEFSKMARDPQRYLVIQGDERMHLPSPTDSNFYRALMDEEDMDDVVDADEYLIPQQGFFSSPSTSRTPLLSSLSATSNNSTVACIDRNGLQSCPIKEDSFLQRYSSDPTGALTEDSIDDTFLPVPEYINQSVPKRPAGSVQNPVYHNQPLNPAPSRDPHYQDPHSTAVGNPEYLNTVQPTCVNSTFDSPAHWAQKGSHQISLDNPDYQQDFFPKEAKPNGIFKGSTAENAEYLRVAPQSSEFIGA
T2 sequence (P04626 23-1255): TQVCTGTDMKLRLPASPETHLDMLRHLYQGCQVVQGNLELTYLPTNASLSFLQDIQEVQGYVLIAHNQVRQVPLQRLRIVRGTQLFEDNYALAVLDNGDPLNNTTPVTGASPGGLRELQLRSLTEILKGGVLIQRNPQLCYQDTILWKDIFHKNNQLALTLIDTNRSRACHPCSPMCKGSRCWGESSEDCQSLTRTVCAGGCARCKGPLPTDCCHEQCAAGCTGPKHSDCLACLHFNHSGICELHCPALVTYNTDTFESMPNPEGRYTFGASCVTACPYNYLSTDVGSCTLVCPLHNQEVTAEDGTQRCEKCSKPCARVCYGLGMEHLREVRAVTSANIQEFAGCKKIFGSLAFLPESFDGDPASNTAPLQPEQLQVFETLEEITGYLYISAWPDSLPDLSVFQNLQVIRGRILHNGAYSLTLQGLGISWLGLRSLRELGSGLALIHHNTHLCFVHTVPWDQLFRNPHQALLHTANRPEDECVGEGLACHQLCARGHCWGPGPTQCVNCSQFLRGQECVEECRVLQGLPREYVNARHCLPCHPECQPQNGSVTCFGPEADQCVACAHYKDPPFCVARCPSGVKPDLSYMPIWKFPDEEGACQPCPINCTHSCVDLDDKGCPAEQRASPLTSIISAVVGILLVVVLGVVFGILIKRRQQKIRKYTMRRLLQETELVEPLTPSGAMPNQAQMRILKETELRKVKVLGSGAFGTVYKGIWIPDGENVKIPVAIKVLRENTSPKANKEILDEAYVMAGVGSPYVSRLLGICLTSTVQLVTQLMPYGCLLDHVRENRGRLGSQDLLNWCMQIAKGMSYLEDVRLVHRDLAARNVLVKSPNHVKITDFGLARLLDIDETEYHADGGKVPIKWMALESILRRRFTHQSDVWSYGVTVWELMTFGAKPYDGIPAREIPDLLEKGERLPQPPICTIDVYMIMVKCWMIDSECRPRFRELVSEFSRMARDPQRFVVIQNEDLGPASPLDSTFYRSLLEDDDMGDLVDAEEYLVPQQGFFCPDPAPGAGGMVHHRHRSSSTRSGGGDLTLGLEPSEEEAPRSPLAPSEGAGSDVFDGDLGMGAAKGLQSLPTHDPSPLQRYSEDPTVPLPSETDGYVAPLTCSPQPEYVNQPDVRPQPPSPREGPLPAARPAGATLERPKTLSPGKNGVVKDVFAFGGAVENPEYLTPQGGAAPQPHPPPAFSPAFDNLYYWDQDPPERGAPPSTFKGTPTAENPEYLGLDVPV

Compound	IC50 (EGFR) [µM]	IC50 (Colo205 tumor cells) [µM]	IC50 (SK-MEL-28 tumor cells) [µM]	IC50 (ErbB2) [µM]	IC50 (BT474 tumor cells) [µM]	IC50 (HN5 tumor cells) [µM]
CN(C)CCOc1cccc(Nc2nccc(-c3sc(NCCCN4CCOCC4)nc3-c3cccc(NC(=O)c4c(F)cccc4F)c3)n2)c1 [Example 29, N-[3-(5-{2-[(3-{[2-(Dimethylamino)ethyl]oxy}phenyl)amino]-4-pyrimidinyl}-2-{[3-(4-morpholinyl)propyl]amino}-1,3-thiazol-4-yl)phenyl]-2,6-difluorobenzamide]	< 0.1	0.1 to 1	> 1	< 0.1	< 0.1	< 0.1
CN(C)CCOc1cccc(Nc2nccc(-c3sc(N)nc3-c3cccc(C(=O)Nc4c(F)cccc4F)c3)n2)c1 [Example 76, 3-(2-Amino-5-{2-[(3-{[2-(dimethylamino)ethyl]oxy}phenyl)amino]-4-pyrimidinyl}-1,3-thiazol-4-yl)-N-(2,6-difluorophenyl)benzamide]	< 0.1	0.1 to 1		< 0.1	< 0.1	0.1 to 1
CN(C)CCOc1cccc(Nc2nccc(-c3scnc3-c3cccc(NC(=O)c4cc(F)ccc4F)c3)n2)c1 [Example 96, N-[3-(5-{2-[(3-{[2-(Dimethylamino)ethyl]oxy}phenyl)amino]-4-pyrimidinyl}-1,3-thiazol-4-yl)phenyl]-2,5-difluorobenzamide]	< 0.1	> 1	> 1	< 0.1	0.1 to 1	< 0.1
CCN(CC)CCOc1cccc(Nc2nccc(-c3scnc3-c3cccc(NC(=O)c4cc(F)ccc4F)c3)n2)c1 [Example 97, N-[3-(5-{2-[(3-{[2-(Diethylamino)ethyl]oxy}phenyl)amino]-4-pyrimidinyl}-1,3-thiazol-4-yl)phenyl]-2,5-difluorobenzamide]	< 0.1	> 1	> 1	< 0.1	0.1 to 1	0.1 to 1
NS(=O)(=O)CCc1cccc(Nc2nccc(-c3scnc3-c3cccc(NC(=O)c4cc(F)ccc4F)c3)n2)c1 [Example 100, N-(3-{5-[2-({3-[2-(Aminosulfonyl)ethyl]phenyl}amino)-4-pyrimidinyl]-1,3-thiazol-4-yl}phenyl)-2,5-difluorobenzamide trifluoroacetate]	< 0.1	0.1 to 1		< 0.1	< 0.1	< 0.1
Cc1nc(-c2cccc(NC(=O)c3c(F)cccc3F)c2)c(-c2ccnc(Nc3cccc(OCCN(C)C)c3)n2)s1 [Example 102, N-[3-(5-{2-[(3-{[2-(Dimethylamino)ethyl]oxy}phenyl)amino]-4-pyrimidinyl}-2-methyl-1,3-thiazol-4-yl)phenyl]-2,6-difluorobenzamide]	< 0.1	> 1		< 0.1	0.1 to 1	0.1 to 1
Cc1nc(-c2cccc(NC(=O)c3cccnc3F)c2)c(-c2ccnc(Nc3ccc4c(c3)CN(C)CC4)n2)s1 [Example 137, 2-Fluoro-N-[3-(2-methyl-5-{2-[(2-methyl-1,2,3,4-tetrahydro-7-isoquinolinyl)amino]-4-pyrimidinyl}-1,3-thiazol-4-yl)phenyl]-3-pyridinecarboxamide trifluoroacetate]	< 0.1	> 1	> 1	< 0.1	0.1 to 1	
CN(C)CCOc1ccc(Nc2nccc(-c3sc(-c4ccc(O)cc4)nc3-c3cccc(NC(=O)c4c(F)cccc4F)c3)n2)cc1Cl [Example 139, N-{3-[5-{2-[(3-Chloro-4-{[2-(dimethylamino)ethyl]oxy}phenyl)amino]-4-pyrimidinyl}-2-(4-hydroxyphenyl)-1,3-thiazol-4-yl]phenyl}-2,6-difluorobenzamide]	< 0.1	0.1 to 1		< 0.1	0.1 to 1	0.1 to 1
CN(C)CCOc1ccc(Nc2nccc(-c3sc(-c4ccc(O)cc4)nc3-c3cccc(NC(=O)c4cc(F)ccc4F)c3)n2)cc1Cl [Example 140, N-{3-[5-{2-[(3-Chloro-4-{[2-(dimethylamino)ethyl]oxy}phenyl)amino]-4-pyrimidinyl}-2-(4-hydroxyphenyl)-1,3-thiazol-4-yl]phenyl}-2,5-difluorobenzamide]	< 0.1	0.1 to 1	0.1 to 1	< 0.1	0.1 to 1	0.1 to 1
